Earlier results, collected in patent US20190259474A1, “GAN-CNN FOR MHC PEPTIDE BINDING PREDICTION” (REGENERON PHARMACEUTICALS, INC., priority 2018, published 2019).
Each block holds one sequence with its values, some of them ahead of it.

Assays:
[1] = tested on: MHC-I protein complex encoded by HLA allele C*03:04; conditions: HLA C*03:04; category transformed from IC50; note: key: binding (1); not binding (−1)
[2] = tested on: MHC-I protein complex encoded by HLA allele A829:02; conditions: HLA A829:02; category transformed from IC50; note: key: binding (1); not binding (−1)
[3] = tested on: MHC-I protein complex encoded by HLA allele B*44:03; conditions: HLA B*44:03; category transformed from IC50; note: key: binding (1); not binding (−1)
[4] = tested on: MHC-I protein complex encoded by HLA allele C*16:01; conditions: HLA C*16:01; category transformed from IC50; note: key: binding (1); not binding (−1)
[5] = tested on: MHC-I protein complex encoded by HLA allele B*48:01; conditions: HLA B*48:01; category transformed from IC50; note: key: binding (1); not binding (−1)
[6] = target: MHC-I protein complex encoded by HLA allele A*02:01 (Homo sapiens, UniProt P04439, D140Y/D185E/D98H/E176V/E277Q/G131W/G231S/I119V/I121R/I166T/I218V/L300P/L318F/N151K/N90K/P208A/P217A/Q86G/Q94H/R138H/R169H/T345S); conditions: HLA A*02:01; category transformed from IC50; note: key: binding (1); not binding (−1)
[7] = tested on: MHC-I protein complex encoded by HLA allele A*02:02; conditions: HLA A*02:02; category transformed from IC50
[8] = target: MHC-I protein complex encoded by HLA allele A*02:06 (Homo sapiens, UniProt P04439, D140Y/D185E/D98H/E176V/E277Q/F33Y/G131W/G231S/I119V/I121R/I166T/I218V/L300P/L318F/N151K/N90K/P208A/P217A/Q86G/Q94H/R138H/R169H/T345S); conditions: HLA A*02:06; category transformed from IC50
[9] = target: MHC-I protein complex encoded by HLA allele A*02:03 (Homo sapiens, UniProt P04439, A173T/D140Y/D185E/D98H/E277Q/G131W/G231S/I119V/I121R/I166T/I218V/L180W/L300P/L318F/N151K/N90K/P208A/P217A/Q86G/Q94H/R138H/R169H/T345S); conditions: HLA A*02:03; category transformed from IC50; note: key: binding (1); not binding (−1)
[10] = tested on: MHC-I protein complex encoded by HLA allele A*68:02; conditions: HLA A*68:02; category transformed from IC50
[11] = tested on: MHC-I protein complex encoded by HLA allele B*58:01; conditions: HLA B*58:01; category transformed from IC50; note: key: binding (1); not binding (−1)
[12] = tested on: MHC-I protein complex encoded by HLA allele B*14:02; conditions: HLA B*14:02; category transformed from IC50; note: key: binding (1); not binding (−1)
[13] = target: MHC-I protein complex encoded by HLA allele A*03:01 (Homo sapiens, UniProt P04439); conditions: HLA A*03:01; category transformed from IC50; note: key: binding (1); not binding (−1)

Binding Category [1]: 1
Sequence: AAADAAAAL (MHC-I binding peptide)

Binding Category [2]: 1
Sequence: AAAAAAAALY (MHC-I binding peptide)

Sequence: AAADFAHAE (MHC-I binding peptide)
Binding Category [3]: −1

Binding Category [4]: 1
Sequence: AAADPKVAF (MHC-I binding peptide)

Binding Category [5]: 1
Sequence: AAAAFEAAL

Binding Category [6]: −1
Sequence: AAAAEEEEE (MHC-I binding peptide)

Sequence: AAAATCALV (MHC-I binding peptide)
Binding Category [7]: 1
Binding Category [8]: 1
Binding Category [9]: 1
Binding Category [10]: 1
Binding Category [6]: 1

Sequence: AAAAPYAGW (MHC-I binding peptide)
Binding Category [11]: 1

Binding Category [12]: 1
Sequence: AAAARAAAL (MHC-I binding peptide)

Binding Category [12]: −1
Sequence: AAAAARAAL (MHC-I binding peptide)

Binding Category [13]: 1
Sequence: AAAAALQAK (MHC-I binding peptide)

Binding Category [4]: 1
Sequence: AAAAALWL (MHC-I binding peptide)
